# According to ChEMBL document CHEMBL1201862, “PubChem BioAssay data set” (2004):
# Counter-ions that a name gives are not always drawn.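 In this assay, cells in 96-well plates receive the compound at five concentrations for 48 hours. Endpoints are linearly interpolated between the surrounding concentrations. The concentration for 50% growth inhibition is given as GI50.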 Calls of active or inactive are those of the source. Rule as the data show it: active = GI50 up to about 1.1 µM and inactive = higher. Residues, ends and D or L forms follow the SMILES beside them. *: point of attachment. Boc = CC(C)(C)OC(=O)*
# Experiments:
# Assay in all cases: NCI-60 cell line screen, 48 h
# OVCAR-3 = test system: OVCAR-3
# SNB-75 = test system: SNB-75
# KM12 = test system: KM12
# ACHN = test system: ACHN
# PC-3 = test system: PC-3
# IGROV-1 = test system: IGROV-1
# MDA-MB-435 = test system: MDA-MB-435
# OVCAR-8 = test system: OVCAR-8
# U-251 = test system: U-251
# HOP-62 = test system: HOP-62
# HCC 2998 = test system: HCC 2998
# 786-0 = test system: 786-0
# TK-10 = test system: TK-10
# MDA-N = test system: MDA-N
# SF-268 = test system: SF-268
# NCI-H522 = test system: NCI-H522
# K562 = test system: K562
# SF-539 = test system: SF-539
# CAKI-1 = test system: CAKI-1
# A498 = test system: A498
Compound,GI50 (OVCAR-3),GI50 (SNB-75),GI50 (KM12),GI50 (ACHN),GI50 (PC-3),GI50 (IGROV-1),GI50 (MDA-MB-435),GI50 (OVCAR-8),GI50 (U-251),GI50 (HOP-62),GI50 (HCC 2998),GI50 (786-0),GI50 (TK-10),GI50 (MDA-N),GI50 (SF-268),GI50 (NCI-H522),GI50 (K562),GI50 (SF-539),GI50 (CAKI-1),GI50 (A498)
CCOC(=O)c1nnsc1N/N=C\c1ccc([N+](=O)[O-])cc1,> 100 µM (inactive),44.5 µM (inactive),> 100 µM (inactive),> 100 µM (inactive),> 100 µM (inactive),> 100 µM (inactive),> 100 µM (inactive),54.7 µM (inactive),> 100 µM (inactive),60 µM (inactive),> 100 µM (inactive),80 µM (inactive),> 100 µM (inactive),> 100 µM (inactive),77.4 µM (inactive),> 100 µM (inactive),> 100 µM (inactive),–,–,–
CC(C)(C)[Si](C)(C)OC1/C(=C/C#N)C(n2ccc(=O)[nH]c2=O)OC1CO (stereo not given),> 100 µM (inactive),–,> 100 µM (inactive),> 100 µM (inactive),> 100 µM (inactive),–,> 100 µM (inactive),> 100 µM (inactive),> 100 µM (inactive),> 100 µM (inactive),–,> 100 µM (inactive),> 100 µM (inactive),> 100 µM (inactive),> 100 µM (inactive),> 100 µM (inactive),96.2 µM (inactive),> 100 µM (inactive),> 100 µM (inactive),> 100 µM (inactive)
CN(C)Cc1cc(/C=C/C(=O)c2ccc(Br)cc2)cc(CN(C)C)c1O,20.8 µM (inactive),12.5 µM (inactive),13.4 µM (inactive),11.5 µM (inactive),26.6 µM (inactive),8.95 µM (inactive),16.9 µM (inactive),29.2 µM (inactive),–,30.1 µM (inactive),14 µM (inactive),16 µM (inactive),12.8 µM (inactive),17.1 µM (inactive),14.8 µM (inactive),–,25.1 µM (inactive),13.1 µM (inactive),8.47 µM (inactive),13.6 µM (inactive)
COC(=O)C(Cc1c[nH]c2ccccc12)NC(=O)C(Cc1c[nH]c2ccccc12)NC(=O)C(Cc1c[nH]c2ccccc12)NC(=O)C(Cc1c[nH]c2ccccc12)NC(=O)C(Cc1c[nH]c2ccccc12)NC(=O)C(Cc1c[nH]c2ccccc12)NC(=O)OC(C)(C)C (stereo not given) (Boc-WWWWWW-OMe; configuration not given here),> 100 µM (inactive),46 µM (inactive),–,> 100 µM (inactive),52.5 µM (inactive),36.9 µM (inactive),> 100 µM (inactive),92.9 µM (inactive),54.7 µM (inactive),> 100 µM (inactive),> 100 µM (inactive),> 100 µM (inactive),31.2 µM (inactive),41.6 µM (inactive),50.4 µM (inactive),28.1 µM (inactive),> 100 µM (inactive),–,> 100 µM (inactive),–
N#CC1(c2ccccc2)CCN(C2(c3ccccc3)CCCCC2)CC1,> 100 µM (inactive),> 100 µM (inactive),> 100 µM (inactive),> 100 µM (inactive),> 100 µM (inactive),> 100 µM (inactive),> 100 µM (inactive),> 100 µM (inactive),> 100 µM (inactive),> 100 µM (inactive),> 100 µM (inactive),94.2 µM (inactive),> 100 µM (inactive),> 100 µM (inactive),> 100 µM (inactive),–,> 100 µM (inactive),–,> 100 µM (inactive),–
O=C1NC(=S)NC(=O)C1C(c1ccc(Cl)cc1)C1C(=O)NC(=S)NC1=O.c1ccncc1,> 100 µM (inactive),–,> 100 µM (inactive),> 100 µM (inactive),> 100 µM (inactive),> 100 µM (inactive),> 100 µM (inactive),> 100 µM (inactive),> 100 µM (inactive),> 100 µM (inactive),–,> 100 µM (inactive),> 100 µM (inactive),> 100 µM (inactive),–,> 100 µM (inactive),> 100 µM (inactive),–,> 100 µM (inactive),> 100 µM (inactive)
COc1cc2c(cc1OC)C(=O)/C(=C/c1ccc(Cl)cc1)CC2,> 10 µM (inactive),–,> 10 µM (inactive),> 10 µM (inactive),> 10 µM (inactive),> 10 µM (inactive),> 10 µM (inactive),> 10 µM (inactive),> 10 µM (inactive),> 10 µM (inactive),> 10 µM (inactive),> 10 µM (inactive),> 10 µM (inactive),> 10 µM (inactive),> 10 µM (inactive),–,> 10 µM (inactive),> 10 µM (inactive),> 10 µM (inactive),> 10 µM (inactive)
C=C1c2nc3ccccc3n2C=C(c2ccccc2)N1c1ccc(OC)cc1,57.8 µM (inactive),3.68 µM (inactive),11.4 µM (inactive),13 µM (inactive),19.1 µM (inactive),11 µM (inactive),33.5 µM (inactive),13.2 µM (inactive),37.8 µM (inactive),–,–,19.5 µM (inactive),12.5 µM (inactive),49.9 µM (inactive),–,1.63 µM (inactive),45.4 µM (inactive),14 µM (inactive),25.5 µM (inactive),> 100 µM (inactive)
O=c1[nH]nc(Cc2ccc(Cl)cc2)n1Nc1ccccc1,> 100 µM (inactive),48.8 µM (inactive),> 100 µM (inactive),> 100 µM (inactive),> 100 µM (inactive),> 100 µM (inactive),> 100 µM (inactive),> 100 µM (inactive),> 100 µM (inactive),79.6 µM (inactive),> 100 µM (inactive),73.6 µM (inactive),> 100 µM (inactive),> 100 µM (inactive),–,–,> 100 µM (inactive),80 µM (inactive),> 100 µM (inactive),> 100 µM (inactive)
CN[C@@H](C)[C@@H](O)c1ccccc1 [PSEUDOEPHEDRINE HYDROCHLORIDE],> 10 µM (inactive),> 100 µM (inactive),> 100 µM (inactive),> 100 µM (inactive),> 100 µM (inactive),> 100 µM (inactive),> 100 µM (inactive),> 100 µM (inactive),> 100 µM (inactive),> 100 µM (inactive),> 100 µM (inactive),> 100 µM (inactive),> 100 µM (inactive),> 100 µM (inactive),> 100 µM (inactive),> 10 µM (inactive),> 100 µM (inactive),> 100 µM (inactive),> 100 µM (inactive),–
S=C(NCc1ccccc1)c1nc[nH]c1C(=S)NCc1ccccc1,6 µM (inactive),6.12 µM (inactive),6.07 µM (inactive),2.69 µM (inactive),7.82 µM (inactive),5.08 µM (inactive),6.62 µM (inactive),4.49 µM (inactive),5.87 µM (inactive),10 µM (inactive),10 µM (inactive),5.96 µM (inactive),10.5 µM (inactive),7.74 µM (inactive),6.19 µM (inactive),3.58 µM (inactive),4.4 µM (inactive),10.4 µM (inactive),5.47 µM (inactive),–
N#Cc1c(N)c2c(c(-c3ccccc3)c1-c1ccccc1)C(=O)N(N)C2=O,> 100 µM (inactive),> 100 µM (inactive),> 100 µM (inactive),> 100 µM (inactive),74.6 µM (inactive),60 µM (inactive),> 100 µM (inactive),> 100 µM (inactive),> 100 µM (inactive),–,> 100 µM (inactive),98.2 µM (inactive),> 100 µM (inactive),> 100 µM (inactive),> 100 µM (inactive),38.6 µM (inactive),> 100 µM (inactive),47.1 µM (inactive),25.2 µM (inactive),–
NC(C(F)(F)F)(C(F)(F)F)P(=O)(c1ccccc1)c1ccccc1,> 100 µM (inactive),> 100 µM (inactive),> 100 µM (inactive),> 100 µM (inactive),> 100 µM (inactive),> 100 µM (inactive),> 100 µM (inactive),> 100 µM (inactive),> 100 µM (inactive),> 100 µM (inactive),> 100 µM (inactive),> 100 µM (inactive),> 100 µM (inactive),> 100 µM (inactive),> 100 µM (inactive),–,> 100 µM (inactive),> 100 µM (inactive),> 100 µM (inactive),–
CCN1CCCC(Nc2cc(C)nc(NC(=N)Nc3ccc(Cl)c(Cl)c3)n2)C1 (stereo not given),1.67 µM (inactive),1.25 µM (inactive),1.85 µM (inactive),2.32 µM (inactive),–,1.38 µM (inactive),1.49 µM (inactive),–,1.3 µM (inactive),1.43 µM (inactive),0.551 µM (active),1.54 µM (inactive),1.69 µM (inactive),1.67 µM (inactive),1.96 µM (inactive),1.24 µM (inactive),0.217 µM (active),1.88 µM (inactive),1.56 µM (inactive),–
COC(=O)C1=C(C(=O)OC)SC(=C2c3ccsc3-c3sccc32)S1,31 µM (inactive),15.9 µM (inactive),40.3 µM (inactive),74.8 µM (inactive),47 µM (inactive),40.6 µM (inactive),> 100 µM (inactive),29.1 µM (inactive),28.3 µM (inactive),19.7 µM (inactive),40.6 µM (inactive),21.4 µM (inactive),24.5 µM (inactive),70.3 µM (inactive),19.9 µM (inactive),–,36.2 µM (inactive),20.7 µM (inactive),> 100 µM (inactive),24.5 µM (inactive)
